Experimental data published in EPA's ToxValDB 9.5 (doi:10.2903/j.efsa.2009.297r).
Values after ≈ are worked out from the molar mass of the structure shown. Values joined by “and” are separate entries in the source; they are usually repeats but may differ in a detail not shown here. Equal entries are not always repeated.

What was measured:
[1] = reproductive
Adalia sp. = settings: not reported; reproduction
Apis mellifera = settings: acute; dermal; mortality
Canidae = settings: chronic; duration: 1 years; oral; Dog Other; body weight
Oncorhynchus mykiss = settings: chronic/long-term; duration: 28 days
Oryctolagus sp. = settings: developmental; development
Rattus norvegicus = settings: oral
Salmo trutta ssp. fario = settings: acute; duration: 96 hours; mortality
Tagia sp. = settings: mortality

Work on O=C1c2ccccc2C(=O)N1SC(Cl)(Cl)Cl [Folpet] yielded an NOEC [1] of 1500 mg/kg, an LEL (Adalia sp.) of 530 g/ha and an NOEC (Anas platyrhynchos; reproductive) of 90 mg/kg-day. The LC50 (Anas platyrhynchos; short-term, oral, feed, mortality) was greater than 746 mg/kg-day, the LD50 (Apis mellifera) was greater than 200 µg/piece and the NOAEL (Canidae) was 10 mg/kg-day. The LC50 (Coturnix coturnix; acute, oral, diet, mortality) was greater than 1130 mg/kg-day, the LD50 (Coturnix coturnix; acute, oral, mortality) was greater than 2510 mg/kg and the NOEC (Coturnix coturnix; reproduction developmental, reproduction) was 78.3 mg/kg-day. For the same molecule, the LC50 (Oncorhynchus mykiss) was 0.11 mg/L (≈ 0.371 µM), the NOAEL (Oryctolagus sp.) was 10 mg/kg-day and 20 mg/kg-day and the LD50 (Rattus norvegicus; acute, mortality) was greater than 2000 mg/kg. For the same molecule, the NOAEL (Rattus norvegicus; chronic, duration: 2 years, diet, body weight) was 10 mg/kg-day, the LC50 (Salmo trutta ssp. fario) was 0.098 mg/L (≈ 0.33 µM) and the LC50 (Tagia sp.; acute, duration: 14 days) was greater than 1000 mg/kg. For the same molecule, the NOEC (Tagia sp.; chronic/long-term) was 5.18 mg/kg.
